What is called EC50 is the concentration at which the effect is half-maximal.

In patent publication US8609669B2, “Potassium channel modulators” (AbbVie Inc., priority 2010, dated 2013) one finds Emax and EC50 data, which are given here for 14 molecules.

The target of this assay is T1, KCNQ 2/3 channels (HEK293 cells stably expressing human KCNQ2 and KCNQ3 subunits) (Homo sapiens, UniProt O43525+O43526).
T1 construct: expressed in transfected cells; host or cells: HEK293
Briefly: KCNQ2/3 channel activation, thallium flux FLIPR assay (BTC-AM dye). Type of assay: cell-based. As to conditions: for Emax: HEK293, maximum response relative to response of retigabine at 10 μM (set at 100%), read-out: Max. %; for EC50: HEK293 cells expressing human KCNQ2 and KCNQ3, FLIPR thallium flux. The method in brief:
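HEK293 cells stably expressing human KCNQ2/KCNQ3 were loaded with BTC-AM and exposed to compound for 4 min in pH 7.3 gluconate buffer with ouabain. Thallium flux was triggered with 6 mM TlNO3 and 10 mM K2SO4 (stock additions) and fluorescence (ex 488, em 540 nm) recorded for 3 min. EC50 came from responses over baseline; maximal response is relative to 10 μM retigabine (100%).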

The structures appear in SMILES notation. Some results are limits rather than exact numbers.

As for `Cc1ccnc2c(-c3cccc(C(F)(F)F)c3)c(NC(=O)Cc3ccc(F)cc3)nn12` [Example 67, 2-(4-fluorophenyl)-N-{7-methyl-3-[3-(trifluoromethyl)phenyl]pyrazolo[1,5-a]pyrimidin-2-yl}acetamide], the Emax was determined as 117% and the EC50 lay within 0.1 to 0.5 µM.
On to `CC(C)(C)c1c(NC(=O)Cc2ccccc2)nn2cccnc12` [Example 137, N-(3-tert-butylpyrazolo[1,5-a]pyrimidin-2-yl)-2-phenylacetamide], for which the Emax was 195% and the EC50 lay in the range of 1 to 10 µM.
On the same counts, the results for `Cc1cc(C)n2nc(NC(=O)CCC3CCCC3)c(C(C)C)c2n1` [Example 122, 3-cyclopentyl-N-(3-isopropyl-5,7-dimethylpyrazolo[1,5-a]pyrimidin-2-yl)propanamide] are 155% and below 0.1 µM.
On the same counts, the results for `COc1ccc(CC(=O)Nc2nn3c(C)cc(C)nc3c2CC(C)(C)C)cc1` [Example 16, N-[3-(2,2-dimethylpropyl)-5,7-dimethylpyrazolo[1,5-a]pyrimidin-2-yl]-2-(4-methoxyphenyl)acetamide] are 174% and 1 to 10 µM.
The like results for `COc1cccc(CC(=O)Nc2nn3c(C)ccnc3c2-c2ccc(Cl)cc2)c1` [Example 41, N-[3-(4-chlorophenyl)-7-methylpyrazolo[1,5-a]pyrimidin-2-yl]-2-(3-methoxyphenyl)acetamide] were, in that order, 136% and 1 to 10 µM.
Take `O=C(Cc1cccnc1)Nc1nn2cccnc2c1-c1ccc(Cl)cc1` [Example 101, N-[3-(4-chlorophenyl)pyrazolo[1,5-a]pyrimidin-2-yl]-2-(pyridin-3-yl)acetamide]: the Emax was found to be 8% and the EC50 is above 10 µM.
The like results for `O=C(NCC1CCCCC1)Nc1nn2cccnc2c1-c1ccc(Cl)cc1` [Example 99, 1-[3-(4-chlorophenyl)pyrazolo[1,5-a]pyrimidin-2-yl]-3-(cyclohexylmethyl)urea] were, in that order, 94% and 1 to 10 µM.
The like results for `CC(C)(C)c1c(NC(=O)CCC2CCCC2)nn2cccnc12` [Example 105, N-(3-tert-butylpyrazolo[1,5-a]pyrimidin-2-yl)-3-cyclopentylpropanamide] were, in that order, 153% and 0.1 to 0.5 µM.
Consider `CC(C)(C)c1c(NC(=O)CC2CCc3ccccc32)nn2cccnc12` (racemic) [Example 172, (±)-N-(3-tert-butylpyrazolo[1,5-a]pyrimidin-2-yl)-2-(2,3-dihydro-1H-inden-1-yl)acetamide], for which the Emax worked out at 20% and the EC50 was above 10 µM.
On the same counts, the results for `CC(C)c1c(NC(=O)CCC2CCCC2)nn2cccnc12` [Example 112, 3-cyclopentyl-N-(3-isopropylpyrazolo[1,5-a]pyrimidin-2-yl)propanamide] are 135% and 0.5 to 1 µM.
On the same counts, the results for `Cc1cnc2c(-c3ccc(Cl)c(C)c3)c(NC(=O)CCc3ccccc3)nn2c1` [Example 44, N-[3-(4-chloro-3-methylphenyl)-6-methylpyrazolo[1,5-a]pyrimidin-2-yl]-3-phenylpropanamide] are 73% and 1 to 10 µM.
On the same counts, the results for `Cc1cc(C)n2nc(NC(=O)CCc3ccccc3)c(-c3ccc(Cl)c(C)c3)c2n1` [Example 47, N-[3-(4-chloro-3-methylphenyl)-5,7-dimethylpyrazolo[1,5-a]pyrimidin-2-yl]-3-phenylpropanamide] are 125% and 0.1 to 0.5 µM.
On to `C/C=C/c1c(NC(=O)CC(C)(C)C)nn2cccnc12` [Example 167, 3,3-dimethyl-N-{3-[(1E)-prop-1-en-1-yl]pyrazolo[1,5-a]pyrimidin-2-yl}butanamide], for which the Emax amounted to 98% and the 50% effective concentration (EC50) lay in the range of 1 to 10 µM.
The like results for `COc1ccc(CC(=O)Nc2nn3c(C)ccnc3c2-c2ccc(C(F)(F)F)cc2)cc1` [Example 80, 2-(4-methoxyphenyl)-N-{7-methyl-3-[4-(trifluoromethyl)phenyl]pyrazolo[1,5-a]pyrimidin-2-yl}acetamide] were, in that order, 59% and above 10 µM.
